Among the data in the NIST ThermoML archive (doi:10.1021/je300633e) are mass density and refractive index values, retold here.

Structures are written as SMILES. ± gives the expanded uncertainty stated by the source.

Series [1] in a line: mn = molality of the nth substance listed, in mol/kg. Conditions: 298.15 K, 101 kPa, Liquid, Vibrating tube method.
Series [2] in a line: refractive index (Na D-line) (dimensionless); mn = molality of the nth substance listed, in mol/kg. Conditions: 298.15 K, 101 kPa, Liquid, Standard Abbe refractometry.

For the compound `OC[C@@H](O)[C@@H](O)[C@H](O)[C@H](O)CO` [D-mannitol] + O, the mass density is reported as 1003.27 ± 1 kg/m3 in series [1] (m1 = 0.1); 1009.2 ± 1 kg/m3 in series [1] (m1 = 0.2); 1015.29 ± 1 kg/m3 in series [1] (m1 = 0.3); 1026.51 ± 1 kg/m3 in series [1] (m1 = 0.5); 1037.43 ± 1 kg/m3 in series [1] (m1 = 0.7); 1047.8 ± 1 kg/m3 in series [1] (m1 = 0.9). Also, the refractive index is 1.3349 ± 0.0009 in series [2] (m1 = 0.1); 1.3367 ± 0.0009 in series [2] (m1 = 0.2); 1.3398 ± 0.0009 in series [2] (m1 = 0.3); 1.344 ± 0.0009 in series [2] (m1 = 0.5); 1.349 ± 0.0009 in series [2] (m1 = 0.7); 1.3532 ± 0.0009 in series [2] (m1 = 0.9).

`CC(=O)NCCCCCCNC(C)=O` [N,N'-diacetyl-1,6-hexanediamine] + O: the mass density in series [1] (m1 = 0.1) was 997.981 ± 1.1 kg/m3; in series [1] (m1 = 0.15), 998.443 ± 1.1 kg/m3; in series [1] (m1 = 0.2), 998.931 ± 1.1 kg/m3; in series [1] (m1 = 0.25) it was 999.413 ± 1.1 kg/m3; in series [1] (m1 = 0.3) it was 999.901 ± 1.1 kg/m3; in series [1] (m1 = 0.35) it was 1000.37 ± 1.1 kg/m3. In series [1] (m1 = 0.4), the mass density was 1000.88 ± 1.1 kg/m3. For the same compound, the refractive index in series [2] (m1 = 0.1) is on record as 1.3348 ± 0.0009; in series [2] (m1 = 0.15) it was 1.3363 ± 0.0009; in series [2] (m1 = 0.2), 1.3382 ± 0.0009; in series [2] (m1 = 0.25) it was 1.3393 ± 0.0009; in series [2] (m1 = 0.3), 1.3409 ± 0.0009; in series [2] (m1 = 0.35), 1.3419 ± 0.0009. For the same compound, in series [2] (m1 = 0.4), the refractive index came to 1.3431 ± 0.0009.

Regarding `OC[C@@H](O)[C@H](O)[C@@H](O)CO` [xylitol] + O, the mass density stood at 1002 ± 1.1 kg/m3 in series [1] (m1 = 0.1); 1006.92 ± 1.1 kg/m3 in series [1] (m1 = 0.2); 1011.76 ± 1.1 kg/m3 in series [1] (m1 = 0.3); 1020.96 ± 1.1 kg/m3 in series [1] (m1 = 0.5); 1029.87 ± 1.1 kg/m3 in series [1] (m1 = 0.7); 1038.33 ± 1.1 kg/m3 in series [1] (m1 = 0.9). The refractive index in series [2] (m1 = 0.1) is given as 1.3341 ± 0.0009; in series [2] (m1 = 0.2) it was 1.3361 ± 0.0009; in series [2] (m1 = 0.3) it was 1.3382 ± 0.0009; in series [2] (m1 = 0.5) it was 1.3423 ± 0.0009; in series [2] (m1 = 0.7), 1.346 ± 0.0009; in series [2] (m1 = 0.9) it was 1.3494 ± 0.0009.

For orientation: mass density means mass per unit of volume. In general, refractive index refers to the speed of light in vacuum divided by its phase velocity in the sample.
